The test system of one test is NL4-3 strain of HIV-1. Briefly: Cyto-protection (CellTiter-Glo viability) assay of MT4 cells infected with NL4-3 virus; inhibition of HIV replication. Format: cell-based. To be noted: Human immunodeficiency virus 1, NL43, 120 h; concentration leading to 50% of cyto-protection; MT4 cells infected with NL4-3 virus; 5 days incubation; CellTiter-Glo; read-out: EC50. As for the experimental part: Preparation of Virus stock of the NL4-3 strain of HIV-1 (Adachi et al, J Virol, 1986, 59(2):284-91).
The virus was prepared as described in Lopez et al (Lopez et al, Proc Natl Acad Sci USA., 2006, 103(40):14947-52, by transfecting 2×10^6 293 T cells (CRL-1573, ATCC) with following modifications: 6 μg of NL4-3 proviral DNA molecular clone were mixed with Fugene 6 transfection reagent from Roche, and used according to manufacturer's instructions. Forty eight hours later, transfected cell supernatants were harvested, filtered through 0.45-μm-pore-size filters, quantified for HIV-1 p24 antigen by using a Innotest HIV antigen mAb assay (Ingen) according to manufacturer's instructions, and used in infection experiments.
Serial dilutions of compounds to be tested were prepared in complete RPMI medium from 10 mM DMSO stock solutions, and I in 96 well Falcon 353072 Microtest[…]distributed in a volume of 20™ tissue culture plate, in order to get 0.5% DMSO final concentration in each well, after the addition of infected cells. Control wells contained also 0.5% DMSO final concentration but no compound.
MT4 cells (from the NIH AIDS Research and Reference Reagent Program) in RPMI complete medium were counted (10×10^6 cells per well in Falcon 353047 Multiwell™ 24 well) and infected for 2 hours at 37°, at a multiplicity of infection (moi) of 0.0001-0.00001. Cells were then centrifuged 3 min at 3000 rpm, and washed two times in 1 ml PBS to remove viruses that have not entered in cells. Infected cells were resuspended in complete RPMI at 1.25×10^6 cells/ml and 80 μl of infected cells were distributed in each well containing compound to be tested or control wells. The plates were then incubated at 37° for 5 days.
Assay used to measure the inhibition of HIV replication by the compounds (according to Gregg S. Jones et al., Antimicrobial Agents and Chemotherapy, 2009, 53 (3): 1194-1203).
After 5 days of incubation, microplates were equilibrated to room temperature for 30 mn and then 50 μl of CellTiter-Glo reagent (Promega Biosciences, Inc., Madison Wis., USA) were added to each well. Cell lysis was carried out at room temperature during 10 min, 150μl of lysates were transferred in Packard Optiplate 96 well, and luminescence was read on a Fluoroskan (Thermo Scientific).
The EC50, or effective concentration 50, is the concentration of compound leading to 50% of cyto-protection in a Cell-Titer-Glo® viability assay based on MT4 cells infected with NL4-3 virus (table 1).
Regarding `Cn1nc(-c2cccs2)c(-c2ccc3c(c2)CCCO3)c1C(OC(C)(C)C)C(=O)O` (centres unmarked) [Example 3, 2-(tert-butoxy)-2-[4-(3,4-dihydro-2H-1-benzopyran-6-yl)-1-methyl-3-(thiophen-2-yl)-1H-pyrazol-5-yl]acetic acid], the EC50 (commonly the concentration at which the effect is half-maximal) amounted to 290 nM.

Consider `Cn1nc(/C=C/C2CC2)c(-c2ccc3c(c2)CCCO3)c1C(OC(C)(C)C)C(=O)O` (centres unmarked) [Example 27, 2-(tert-butoxy)-2-{3-[(E)-2-cyclopropylethenyl]-4-(3,4-dihydro-2H-1-benzopyran-6-yl)-1-methyl-1H-pyrazol-5-yl}acetic acid], for which the EC50 turned out to be 5300 nM.

On to `C=C(c1nn(C)c(C(OC(C)(C)C)C(=O)O)c1-c1ccc2c(c1)CCCO2)C1CCCC1` (centres unmarked) [Example 23, 2-(tert-butoxy)-2-[3-(1-cyclopentylethenyl)-4-(3,4-dihydro-2H-1-benzopyran-6-yl)-1-methyl-1H-pyrazol-5-yl]acetic acid], for which the EC50 was 2000 nM.

With `CC1CCCC=C1c1nn(C)c(C(OC(C)(C)C)C(=O)O)c1-c1ccc2c(c1)CCCO2` (centres unmarked) [Example 18, 2-(tert-butoxy)-2-[4-(3,4-dihydro-2H-1-benzopyran-6-yl)-1-methyl-3-(6-methylcyclohex-1-en-1-yl)-1H-pyrazol-5-yl]acetic acid], the EC50 was 500 nM.

In the case of `CC1C=C(c2nn(C)c(C(OC(C)(C)C)C(=O)O)c2-c2ccc3c(c2)CCCO3)CCC1` (centres unmarked) [Example 17, 2-(tert-butoxy)-2-[4-(3,4-dihydro-2H-1-benzopyran-6-yl)-1-methyl-3-(3-methylcyclohex-1-en-1-yl)-1H-pyrazol-5-yl]acetic acid], the EC50 was 740 nM.

As for `Cn1nc(-c2nccs2)c(-c2ccc3c(c2)CCCO3)c1C(OC(C)(C)C)C(=O)O` (centres unmarked) [Example 8, 2-(tert-butoxy)-2-[4-(3,4-dihydro-2H-1-benzopyran-6-yl)-1-methyl-3-(1,3-thiazol-2-yl)-1H-pyrazol-5-yl]acetic acid], the EC50 amounted to 3700 nM.

With `Cn1nc(C2=CC(O)CCC2)c(-c2ccc3c(c2)CCCO3)c1C(OC(C)(C)C)C(=O)O` (centres unmarked) [Example 43, 2-(tert-butoxy)-2-[4-(3,4-dihydro-2H-1-benzopyran-6-yl)-3-(3-hydroxycyclohex-1-en-1-yl)-1-methyl-1H-pyrazol-5-yl]acetic acid], the EC50 amounted to 9200 nM.

For `CCCc1nn(C)c(C(OC(C)(C)C)C(=O)O)c1-c1ccc2c(c1)CCCO2` (centres unmarked) [Example 30, 2-(tert-butoxy)-2-[4-(3,4-dihydro-2H-1-benzopyran-6-yl)-1-methyl-3-propyl-1H-pyrazol-5-yl]acetic acid], the EC50 came out at 32000 nM.

Regarding `Cc1c(-c2c(-c3cccs3)nn(C)c2C(OC(C)(C)C)C(=O)O)cc(F)c2c1CCCO2` (centres unmarked) [Example 10, 2-(tert-butoxy)-2-[4-(8-fluoro-5-methyl-3,4-dihydro-2H-1-benzopyran-6-yl)-1-methyl-3-(thiophen-2-yl)-1H-pyrazol-5-yl]acetic acid], the EC50 amounted to 1100 nM.

With `C=C(C)c1nn(C)c(C(OC(C)(C)C)C(=O)O)c1-c1ccc2c(c1)CCCO2` (centres unmarked) [Example 22, 2-(tert-butoxy)-2-[4-(3,4-dihydro-2H-1-benzopyran-6-yl)-1-methyl-3-(prop-1-en-2-yl)-1H-pyrazol-5-yl]acetic acid], the EC50 came to 8000 nM.

Regarding `CC1CC=C(c2nn(C)c(C(OC(C)(C)C)C(=O)O)c2-c2ccc3c(c2)CCCO3)CC1` (centres unmarked) [Example 31, 2-(tert-butoxy)-2-[4-(3,4-dihydro-2H-1-benzopyran-6-yl)-1-methyl-3-(4-methylcyclohex-1-en-1-yl)-1H-pyrazol-5-yl]acetic acid], the EC50 is 3800 nM.

Regarding `CC1CCC=C1c1nn(C)c(C(OC(C)(C)C)C(=O)O)c1-c1ccc2c(c1)CCCO2` (centres unmarked) [Example 26, 2-(tert-butoxy)-2-[4-(3,4-dihydro-2H-1-benzopyran-6-yl)-1-methyl-3-(5-methylcyclopent-1-en-1-yl)-1H-pyrazol-5-yl]acetic acid], the EC50 stood at 630 nM.

Take `Cn1nc(C2=CCCCC2)c(-c2ccc3c(c2)CCCO3)c1C(OC(C)(C)C)C(=O)O` (centres unmarked) [Example 13, 2-(tert-butoxy)-2-[3-(cyclohex-1-en-1-yl)-4-(3,4-dihydro-2H-1-benzopyran-6-yl)-1-methyl-1H-pyrazol-5-yl]acetic acid]: the EC50 was 170 nM.

On to `Cc1c(-c2c(-c3cccs3)nn(C)c2C(OC(C)(C)C)C(=O)O)ccc2c1CCCO2` (centres unmarked) [Example 7, 2-(tert-butoxy)-2-[1-methyl-4-(5-methyl-3,4-dihydro-2H-1-benzopyran-6-yl)-3-(thiophen-2-yl)-1H-pyrazol-5-yl]acetic acid], for which the EC50 was determined as 410 nM.

`Cn1nc(-c2ccccc2)c(-c2ccc3c(c2)CCCO3)c1C(OC(C)(C)C)C(=O)O` (centres unmarked) [Example 2, 2-(tert-butoxy)-2-[4-(3,4-dihydro-2H-1-benzopyran-6-yl)-1-methyl-3-phenyl-1H-pyrazol-5-yl]acetic acid]: the EC50 is 680 nM.

For `Cn1nc(C2CCCCC2)c(-c2ccc3c(c2)CCCO3)c1C(OC(C)(C)C)C(=O)O` (centres unmarked) [Example 20, 2-(tert-butoxy)-2-[3-cyclohexyl-4-(3,4-dihydro-2H-1-benzopyran-6-yl)-1-methyl-1H-pyrazol-5-yl]acetic acid], the EC50 was 1400 nM.

With `Cn1nc(C2=CCCC2)c(-c2ccc3c(c2)CCCO3)c1C(OC(C)(C)C)C(=O)O` (centres unmarked) [Example 12, 2-(tert-butoxy)-2-[3-(cyclopent-1-en-1-yl)-4-(3,4-dihydro-2H-1-benzopyran-6-yl)-1-methyl-1H-pyrazol-5-yl]acetic acid], the EC50 came to 240 nM.

Take `Cn1nc(C2=CCCC2(C)C)c(-c2ccc3c(c2)CCCO3)c1C(OC(C)(C)C)C(=O)O` (centres unmarked) [Example 32, 2-(tert-butoxy)-2-[4-(3,4-dihydro-2H-1-benzopyran-6-yl)-3-(5,5-dimethylcyclopent-1-en-1-yl)-1-methyl-1H-pyrazol-5-yl]acetic acid]: the EC50 came out at 3200 nM.

In the case of `CC(C)C1CC=C(c2c(-c3ccccc3)nn(C)c2C(OC(C)(C)C)C(=O)O)CC1` (centres unmarked) [Example 41, 2-(tert-butoxy)-2-{1-methyl-3-phenyl-4-[4-(propan-2-yl)cyclohex-1-en-1-yl]-1H-pyrazol-5-yl}acetic acid], the EC50 was found to be 6000 nM.

For `Cn1nc(C2=CCC(C)(C)CC2)c(-c2ccc3c(c2)CCCO3)c1C(OC(C)(C)C)C(=O)O` (centres unmarked) [Example 14, 2-(tert-butoxy)-2-[4-(3,4-dihydro-2H-1-benzopyran-6-yl)-3-(4,4-dimethylcyclohex-1-en-1-yl)-1-methyl-1H-pyrazol-5-yl]acetic acid], the EC50 was determined as 1700 nM.

With `CCCc1cc(-c2nn(C)c(C(OC(C)(C)C)C(=O)O)c2-c2ccc3c(c2)CCCO3)cs1` (centres unmarked) [Example 11, 2-(tert-butoxy)-2-[4-(3,4-dihydro-2H-1-benzopyran-6-yl)-1-methyl-3-(5-propylthiophen-3-yl)-1H-pyrazol-5-yl]acetic acid], the EC50 came out at 830 nM.

Take `Cn1nc(-c2ccccc2)c(C2=CCC(C)(C)CC2)c1C(OC(C)(C)C)C(=O)O` (centres unmarked) [Example 1, 2-(tert-butoxy)-2-[4-(4,4-dimethylcyclohex-1-en-1-yl)-1-methyl-3-phenyl-1H-pyrazol-5-yl]acetic acid]: the EC50 is 480 nM.

The test is the same for the next values; noted with them: Human immunodeficiency virus 1, NL43, MT4, 120 h.
`Cn1nc(C2=CC3CCC2C3)c(-c2ccc3c(c2)CCCO3)c1C(OC(C)(C)C)C(=O)O` (centres unmarked) [Example 15, 2-(3-{bicyclo[2.2.1]hept-2-en-2-yl}-4-(3,4-dihydro-2H-1-benzopyran-6-yl)-1-methyl-1H-pyrazol-5-yl)-2-(tert-butoxy)acetic acid] registered an EC50 of 550 nM.

The record behind these values is patent US9260395B2, “Inhibitors of viral replication, their process of preparation and their therapeutical uses” (priority 2012, dated 2016).
